Data taken from patent US10576062B2, “Carbamoyloxymethyl triazole cyclohexyl acids as LPA antagonists” (Bristol-Myers Squibb Company, priority 2016, dated 2020).
pIC50: −log10 of the molar value.

Molecular target: T1, human LPA1 (Homo sapiens, UniProt Q92633)
T1 construct: expressed in transfected cells; host or cells: Chinese hamster ovary (CHO) cells
Assay: LPA1 functional antagonist assay (LPA-induced calcium flux)
Assay type: cell-based
Details: CHO cells overexpressing human LPA1; inhibition of calcium flux induced by 10 nM LPA; read-out: hLPA1 IC50
In short: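 CHO cells overexpressing human LPA1, loaded with calcium dye 30 min at 37° C, were preincubated 20 min at room temperature with compound (0.08 nM–5 μM, 0.5% DMSO) in HBSS/20 mM HEPES/0.1% fatty acid-free BSA.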

T1 sequence (Q92633 whole entry): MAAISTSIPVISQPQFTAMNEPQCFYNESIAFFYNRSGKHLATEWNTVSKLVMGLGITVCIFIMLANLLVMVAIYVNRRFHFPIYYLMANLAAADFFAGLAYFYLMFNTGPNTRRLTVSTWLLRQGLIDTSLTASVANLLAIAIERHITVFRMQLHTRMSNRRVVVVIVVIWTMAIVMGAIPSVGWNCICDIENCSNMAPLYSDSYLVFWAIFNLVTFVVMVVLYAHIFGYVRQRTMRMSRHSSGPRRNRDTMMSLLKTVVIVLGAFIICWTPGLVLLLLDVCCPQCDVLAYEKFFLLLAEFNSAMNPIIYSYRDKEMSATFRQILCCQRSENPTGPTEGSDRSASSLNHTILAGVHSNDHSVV

Going from `Cc1nc(-c2nnn(C)c2COC(=O)N(C)CC2CCC2)ccc1O[C@H]1CCC[C@H](c2nnn[nH]2)C1` [Example 16, (4-(5-(((1S,3 S)-3-(1H-tetrazol-5-yl)cyclohexyl)oxy)-6-methylpyridin-2-yl)-1-methyl-1H-1,2,3-triazol-5-yl)methyl (cyclobutylmethyl)(methyl)carbamate] to `Cc1nc(-c2nnn(C)c2CCOC(=O)N(C)CC2CCC2)ccc1O[C@H]1CCC[C@H](C(=O)O)C1` [Example 241, (1S,3S)-3-((6-(5-(2-(((Cyclobutylmethyl)(methyl)carbamoyl)oxy)ethyl)-1-methyl-1H-1,2,3-triazol-4-yl)-2-methylpyridin-3-yl)oxy)cyclohexane-1-carboxylic Acid], the pIC50 falls from 7.66 to 7.39 (0.27 log units).

First: Cc1nc(-c2nnn(C)c2COC(=O)N(C)CC(C)(C)F)cnc1O[C@H]1CCC[C@H](C(=O)O)C1 [Example 232, (1S,3S)-3-((5-(5-((((2-fluoro-2-methylpropyl)(methyl)carbamoyl)oxy)methyl)-1-methyl-1H-1,2,3-triazol-4-yl)-3-methylpyrazin-2-yl)oxy)cyclohexane-1-carboxylic acid]
Second: Cc1nc(-c2nnn(C)c2COC(=O)N(C)CC(C)(C)C)cnc1O[C@H]1CCC[C@H](C(=O)O)C1 [Example 231, (1S,3S)-3-((3-methyl-5-(1-methyl-5-(((methyl(neopentyl)carbamoyl)oxy)methyl)-1H-1,2,3-triazol-4-yl)pyrazin-2-yl)oxy)cyclohexane-1-carboxylic acid]
The pIC50 of the first is 0.34 log units lower: 6.72 for the first, 7.06 for the second. The second is the more potent here.

`Cc1nc(-c2nnn(C)c2COC(=O)N(C)C[C@H]2C[C@@H]2C)ccc1O[C@H]1CCCC(C(=O)O)C1` (stereo in doubt) [Example 258, (1R,3 S)-3-((2-methyl-6-(1-methyl-5-(((methyl(((1S,2S)-2-methylcyclopropyl)methyl)carbamoyl)oxy)methyl)-1H-1,2,3-triazol-4-yl)pyridin-3-yl)oxy)cyclohexane-1-carboxylic Acid] and `C[C@@H]1C[C@H]1CN(C)C(=O)OCc1c(-c2ccc(O[C@H]3CCC[C@H](C(=O)O)C3)cn2)nnn1C` [Example 251, (1S,3S)-3-((6-(1-methyl-5-(((methyl(((1R,2R)-2-methylcyclopropyl)methyl)carbamoyl)oxy)methyl)-1H-1,2,3-triazol-4-yl)pyridin-3-yl)oxy)cyclohexane-1-carboxylic acid] are within 0.2 log units of each other in pIC50: 7.72 for the first, 7.57 for the second.

Compared with `CCCOCCN(C)C(=O)OCc1c(-c2ccc(O[C@H]3CCC[C@H](C(=O)O)C3)c(C)n2)nnn1C` [Example 250, (1S,3S)-3-((2-methyl-6-(1-methyl-5-(((methyl(2-propoxyethyl)carbamoyl)oxy)methyl)-1H-1,2,3-triazol-4-yl)pyridin-3-yl)oxy)cyclohexane-1-carboxylic acid], `Cc1nc(-c2nnn(C)c2COC(=O)N(C)CCC(C)F)ccc1O[C@H]1CCC[C@H](C(=O)O)C1` (stereo partly drawn) [Example 260, (1S,3 S)-3-((6-(5-((((3-fluorobutyl)(methyl)carbamoyl)oxy)methyl)-1-methyl-1H-1,2,3-triazol-4-yl)-2-methylpyridin-3-yl)oxy)cyclohexane-1-carboxylic Acid] is 0.80 log units higher in pIC50: 6.50 for the first, 7.30 for the second.

Compared with `CCc1nc(-c2nnn(C)c2COC(=O)N(C)CC)ccc1O[C@H]1CCC[C@H](C(=O)O)C1` [Example 202, (1S,3S)-3-((2-ethyl-6-(5-(((ethyl(methyl)carbamoyl)oxy)methyl)-1-methyl-1H-1,2,3-triazol-4-yl)pyridin-3-yl)oxy)cyclohexane-1-carboxylic acid], `CCc1nc(-c2nnn(C)c2COC(=O)NC23CC(C2)C3)ccc1O[C@H]1CCC[C@H](C(=O)O)C1` [Example 205, (1S,3S)-3-((6-(5-(((bicyclo[1.1.1]pentan-1-ylcarbamoyl)oxy)methyl)-1-methyl-1H-1,2,3-triazol-4-yl)-2-ethylpyridin-3-yl)oxy)cyclohexane-1-carboxylic acid] is 0.73 log units lower in pIC50: 6.80 for the first, 6.07 for the second. The first is the more potent here.

Going from `CN(C(=O)OCc1c(-c2cnc(O[C@H]3CCC[C@H](C(=O)O)C3)cn2)nnn1C)C1CCCC1` [Example 215, (1S,3S)-3-((5-(5-(((cyclopentyl(methyl)carbamoyl)oxy)methyl)-1-methyl-1H-1,2,3-triazol-4-yl)pyrazin-2-yl)oxy)cyclohexane-1-carboxylic acid] to `CN(C(=O)OCc1c(-c2ccc(O[C@H]3CCC[C@H](C(=O)O)C3)c(C(F)F)n2)nnn1C)C1CCCC1` [Example 281, (1S,3S)-3-((6-(5-(((cyclopentyl(methyl)carbamoyl)oxy)methyl)-1-methyl-1H-1,2,3-triazol-4-yl)-2-(difluoromethyl)pyridin-3-yl)oxy)cyclohexane-1-carboxylic acid], the pIC50 rises from 7.08 to 7.46 (0.38 log units). The second is the more potent here.

First: COCc1nc(-c2nnn(C)c2COC(=O)N(C)C2CCC2)ccc1O[C@H]1CCC[C@H](C(=O)O)C1 [Example 286, (1S,3S)-3-((6-(5-(((cyclobutyl(methyl)carbamoyl)oxy)methyl)-1-methyl-1H-1,2,3-triazol-4-yl)-2-(methoxymethyl)pyridin-3-yl)oxy)cyclohexane-1-carboxylic acid]
Second: CN(C(=O)OCc1c(-c2cnc(O[C@H]3CCC[C@H](C(=O)O)C3)c(C(F)(F)F)c2)nnn1C)C1CCC1 [Example 240, (1S,3S)-3-((5-(5-(((cyclobutyl(methyl)carbamoyl)oxy)methyl)-1-methyl-1H-1,2,3-triazol-4-yl)-3-(trifluoromethyl)pyridin-2-yl)oxy)cyclohexane-1-carboxylic acid]
The pIC50 of the first is 1.12 log units higher: 7.04 for the first, 5.92 for the second.

`CN(CC1CC1)C(=O)OCc1c(-c2cnc(O[C@H]3CCC[C@H](C(=O)O)C3)c(C(F)(F)F)c2)nnn1C` [Example 237, (1S,3S)-3-((5-(5-((((cyclopropylmethyl)(methyl)carbamoyl)oxy)methyl)-1-methyl-1H-1,2,3-triazol-4-yl)-3-(trifluoromethyl)pyridin-2-yl)oxy)cyclohexane-1-carboxylic acid] showed a pIC50 of 5.62.

Same assay, conditions: human LPA1; read-out: hLPA1 IC50

Compared with `Cc1nc(-c2nnn(C)c2COC(=O)N2CC3(CCCC3)C2)ccc1O[C@H]1CCC[C@H](C(=O)O)C1` [Example 159, (1S,3S)-3-((6-(5-(((2-azaspiro[3.4]octane-2-carbonyl)oxy)methyl)-1-methyl-1H-1,2,3-triazol-4-yl)-2-methylpyridin-3-yl)oxy)cyclohexane-1-carboxylic acid], `Cc1nc(-c2nnn(C)c2COC(=O)N2CCC(c3ccccc3)C2)ccc1O[C@H]1CCC[C@H](C(=O)O)C1` (mixture of isomers) [Example 169, (1S,3S)-3-((2-methyl-6-(1-methyl-5-(((3-phenylpyrrolidine-1-carbonyl)oxy)methyl)-1H-1,2,3-triazol-4-yl)pyridin-3-yl)oxy)cyclohexane-1-carboxylic acid] is 0.32 log units lower in pIC50: 6.79 for the first, 6.47 for the second.

Work on `Cc1nc(-c2nnn(C)c2COC(=O)N(C)CCCF)ccc1O[C@H]1CCC[C@H](C(=O)O)C1` [Example 190, (1S,3S)-3-((6-(5-((((3-fluoropropyl)(methyl)carbamoyl)oxy)methyl)-1-methyl-1H-1,2,3-triazol-4-yl)-2-methylpyridin-3-yl)oxy)cyclohexane-1-carboxylic acid] yielded a pIC50 of 7.09.

Same assay, conditions: read-out: hLPA1 IC50

Going from `CCC1(N(C)C(=O)OCc2c(-c3ccc(O[C@H]4CCC[C@H](C(=O)O)C4)c(C)n3)nnn2C)CC1` [Example 131, (1S,3S)-3-((6-(5-((((1-ethylcyclopropyl)(methyl)carbamoyl)oxy)methyl)-1-methyl-1H-1,2,3-triazol-4-yl)-2-methylpyridin-3-yl)oxy)cyclohexane-1-carboxylic acid] to `Cc1nc(-c2nnn(C)c2COC(=O)N(C)C2(C)CC(C)C2)ccc1O[C@H]1CCC[C@H](C(=O)O)C1` (single isomer, unassigned) [Example 107], the pIC50 rises from 6.73 to 7.15 (0.42 log units).

`Cc1cc(-c2nnn(C)c2COC(=O)N(C)CC2CCC2)ccc1O[C@H]1CCC[C@H](C(=O)O)C1` [Example 37, (1S,3S)-3-(4-(5-((((cyclobutylmethyl)(methyl)carbamoyl)oxy)methyl)-1-methyl-1H-1,2,3-triazol-4-yl)-2-methylphenoxy)cyclohexane-1-carboxylic acid] and `Cc1nc(-c2nnn(C)c2COC(=O)N(C)CC2CCOCC2)ccc1O[C@H]1CCC[C@H](C(=O)O)C1` [Example 117, (1S,3S)-3-((2-methyl-6-(1-methyl-5-(((methyl((tetrahydro-2H-pyran-4-yl)methyl)carbamoyl)oxy)methyl)-1H-1,2,3-triazol-4-yl)pyridin-3-yl)oxy)cyclohexane-1-carboxylic acid] are within 0.2 log units of each other in pIC50: 7.85 for the first, 7.77 for the second.

Compared with `CC(C)CN(C)C(=O)OCc1c(-c2ccc(O[C@H]3CCC[C@H](C(=O)O)C3)cc2)nnn1C` [Example 53, (1S,3S)-3-(4-(5-(((isobutyl(methyl)carbamoyl)oxy)methyl)-1-methyl-1H-1,2,3-triazol-4-yl)phenoxy)cyclohexane-1-carboxylic acid], `C[C@H](C1CC1)N(C)C(=O)OCc1c(-c2ccc(O[C@H]3CCC[C@H](C(=O)O)C3)cn2)nnn1C` [Example 25, (1S,3S)-3-((6-(5-(((((R)-1-cyclopropylethyl)(methyl)carbamoyl)oxy)methyl)-1-methyl-1H-1,2,3-triazol-4-yl)pyridin-3-yl)oxy)cyclohexane-1-carboxylic acid] is 1.34 log units higher in pIC50: 6.36 for the first, 7.70 for the second. The second is the more potent here.

Going from `Cc1nc(-c2nnn(C)c2COC(=O)N(C)Cc2ccncc2)ccc1O[C@H]1CCC[C@H](C(=O)O)C1` [Example 122, (1S,3S)-3-((2-methyl-6-(1-methyl-5-(((methyl(pyridin-4-ylmethyl)carbamoyl)oxy)methyl)-1H-1,2,3-triazol-4-yl)pyridin-3-yl)oxy)cyclohexane-1-carboxylic acid] to `CC(C1CC1)N(C)C(=O)OCc1c(-c2ccc(O[C@H]3CCC[C@H](C(=O)O)C3)c(F)c2)nnn1C` (mixture of isomers) [Example 45, (1S,3S)-3-(4-(5-((((1-cyclopropylethyl)(methyl)carbamoyl)oxy)methyl)-1-methyl-1H-1,2,3-triazol-4-yl)-2-fluorophenoxy)cyclohexane-1-carboxylic acid], the pIC50 rises from 6.06 to 7.70 (1.64 log units).
